{"source": "patent US11453683B1", "about": "“KRas G12D inhibitors” (Mirati Therapeutics, Inc., priority 2019, dated 2022)"}
{"tested_on": "KRas G12D-mediated phosphorylation of ERK", "experiment": "Inhibition of KRas G12D-mediated phosphorylation of ERK in AGS cells", "assay_type": "cell-based", "conditions": "Homo sapiens; AGS cells expressing G12D, 3 hours, phospho-ERK normalized to GAPDH", "outline": "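In-cell Western: p-ERK Thr202/Tyr204 signal over GAPDH, as % of DMSO control, with IC50 from a 4-parameter curve. AGS cells seeded 40,000/well for 12-14 h, exposed to compound 3 h at 0.5% DMSO final, then formaldehyde-fixed and methanol-permeabilized.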", "units": {"IC50": "nM"}}
{"compound": "Oc1cc(Cl)c(C2CC2)c(-c2ncc3c(N4C[C@H]5CC[C@@H](C4)N5)nc(OC[C@@]45CCCN4C[C@H](F)C5)nc3c2F)c1", "note": "[Example 283, 3-(4-((1R,5S)-3,8-diazabicyclo[3.2.1]octan-3-yl)-8-fluoro-2-(((2R,7aS)-2-fluorohexahydro-1H-pyrrolizin-7a-yl)methoxy)pyrido[4,3-d]pyrimidin-7-yl)-5-chloro-4-cyclopropylphenol]", "IC50": 7}
{"compound": "CS(=O)(=O)NC[C@H]1CC[C@@]2(COc3nc(N4C[C@H]5CC[C@@H](C4)N5)c4cnc(-c5cccc6cccc(Cl)c56)c(F)c4n3)CCCN12", "note": "[Example 420, N-(((3R,7aR)-7a-(((4-((1R,5S)-3,8-diazabicyclo[3.2.1]octan-3-yl)-7-(8-chloronaphthalen-1-yl)-8-fluoropyrido[4,3-d]pyrimidin-2-yl)oxy)methyl)hexahydro-1H-pyrrolizin-3-yl)methyl)methanesulfonamide]", "IC50": 7820}
{"compound": "Cc1ccc2[nH]ncc2c1-c1ncc2c(N3C[C@H]4CC[C@@H](C3)N4)nc(OCC34CCCN3CCC4)nc2c1F", "note": "[Example 332, 4-((1R,5S)-3,8-diazabicyclo[3.2.1]octan-3-yl)-8-fluoro-7-(5-methyl-1H-indazol-4-yl)-2-((tetrahydro-1H-pyrrolizin-7a(5H)-yl)methoxy)pyrido[4,3-d]pyrimidine]", "IC50": "> 16700"}
{"compound": "Fc1c(-c2cccc3cccc(Cl)c23)ncc2c(N3CC4CCC(C3)N4)nc(OC[C@@]34CCCN3C[C@H](F)C4)nc12", "note": "(stereo in doubt) [Example 134, 4-((1R,5S)-3,8-diazabicyclo[3.2.1]octan-3-yl)-7-(8-chloronaphthalen-1-yl)-8-fluoro-2-((2-fluorotetrahydro-1H-pyrrolizin-7a(5H)-yl)methoxy)pyrido[4,3-d]pyrimidine]", "IC50": 895}
{"compound": "C#Cc1cccc2cccc(-c3ncc4c(N5C[C@H]6CC[C@@H](C5)N6)nc(OCC56CCCN5CCC6)nc4c3F)c12", "note": "[Example 179, 4-((1R,5S)-3,8-diazabicyclo[3.2.1]octan-3-yl)-7-(8-ethynylnaphthalen-1-yl)-8-fluoro-2-((hexahydro-1H-pyrrolizin-7a-yl)methoxy)pyrido[4,3-d]pyrimidine]", "IC50": 71.2}
{"compound": "Fc1c(-c2c(C(F)(F)F)ccc3[nH]ncc23)ncc2c(N3CC4CCC(C3)N4)nc(OCC34CCCN3C[C@H](F)C4)nc12", "note": "(mixture of isomers) [Example 343, 4-((1R,5S)-3,8-diazabicyclo[3.2.1]octan-3-yl)-8-fluoro-2-((2-fluorotetrahydro-1H-pyrrolizin-7a(5H)-yl)methoxy)-7-(5-(trifluoromethyl)-1H-indazol-4-yl)pyrido[4,3-d]pyrimidine]", "IC50": 1620}
{"compound": "C#Cc1cccc2cc(O)cc(-c3ncc4c(N5C[C@H]6CC[C@@H](C5)N6)nc(OCC56CCCN5CCC6)nc4c3F)c12", "note": "[Example 185, 4-(4-((1R,5S)-3,8-diazabicyclo[3.2.1]octan-3-yl)-8-fluoro-2-((hexahydro-1H-pyrrolizin-7a-yl)methoxy)pyrido[4,3-d]pyrimidin-7-yl)-5-ethynylnaphthalen-2-ol]", "IC50": 7.1}
{"compound": "C#Cc1cccc2cc(O)cc(-c3ncc4c(N5CC6CCC(C5)N6)nc(OC[C@@]56CCCN5C[C@H](OC)C6)nc4c3F)c12", "note": "(stereo in doubt) [Example 410, 4-(4-((1R,5S)-3,8-diazabicyclo[3.2.1]octan-3-yl)-8-fluoro-2-((2-methoxytetrahydro-1H-pyrrolizin-7a(5H)-yl)methoxy)pyrido[4,3-d]pyrimidin-7-yl)-5-ethynylnaphthalen-2-ol]", "IC50": 8}
{"compound": "Oc1cc(-c2ncc3c(N4C[C@H]5CC[C@@H](C4)N5)nc(OCC45CCCN4C(CF)CC5)nc3c2F)c2c(Cl)cccc2c1", "note": "(stereo partly drawn) [Example 400, 4-(4-((1R,5S)-3,8-diazabicyclo[3.2.1]octan-3-yl)-8-fluoro-2-((3-(fluoromethyl)tetrahydro-1H-pyrrolizin-7a(5H)-yl)methoxy)pyrido[4,3-d]pyrimidin-7-yl)-5-chloronaphthalen-2-ol]", "IC50": 261}
{"compound": "CN1CC(COc2nc(N3C[C@H]4CC[C@@H](C3)N4)c3cnc(-c4cccc5cccc(Cl)c45)c(F)c3n2)CC1=O", "note": "(stereo partly drawn) [Example 131, 4-(((4-((1R,5S)-3,8-diazabicyclo[3.2.1]octan-3-yl)-7-(8-chloronaphthalen-1-yl)-8-fluoropyrido[4,3-d]pyrimidin-2-yl)oxy)methyl)-1-methylpyrrolidin-2-one]", "IC50": "> 16700"}
{"compound": "Fc1c(-c2cccc3cccc(F)c23)ncc2c(N3C[C@H]4CC[C@@H](C3)N4)nc(OCC34CCCN3CCC4)nc12", "note": "[Example 234, 4-((1R,5S)-3,8-diazabicyclo[3.2.1]octan-3-yl)-8-fluoro-7-(8-fluoronaphthalen-1-yl)-2-((tetrahydro-1H-pyrrolizin-7a(5H)-yl)methoxy)pyrido[4,3-d]pyrimidine]", "IC50": 409}
{"compound": "COC1CN2CCCC2(COc2nc(N3CC4CCC(C3)N4)c3cnc(-c4cc(O)cc5cccc(F)c45)c(F)c3n2)C1", "note": "(mixture of isomers) [Example 388, 4-(4-((1R,5S)-3,8-diazabicyclo[3.2.1]octan-3-yl)-8-fluoro-2-((2-methoxytetrahydro-1H-pyrrolizin-7a(5H)-yl)methoxy)pyrido[4,3-d]pyrimidin-7-yl)-5-fluoronaphthalen-2-ol (mixture of trans diastereomers)]", "IC50": 40.2}
{"compound": "COC(=O)NC[C@H]1CC[C@@]2(COc3nc(N4CC5CCC(C4)N5)c4cnc(-c5cccc6cccc(Cl)c56)c(F)c4n3)CCCN12", "note": "[Example 411, methyl ((7a-(((4-(3,8-diazabicyclo[3.2.1]octan-3-yl)-7-(8-chloronaphthalen-1-yl)-8-fluoropyrido[4,3-d]pyrimidin-2-yl)oxy)methyl)hexahydro-1H-pyrrolizin-3-yl)methyl)carbamate]", "IC50": 745}
{"compound": "Cn1ccnc1CCOc1nc(N2C[C@H]3C[C@@H](O)[C@@H](C2)N3)c2cnc(-c3cccc4cccc(Cl)c34)c(F)c2n1", "note": "[Example 173, (1R,5R,6R)-3-(7-(8-chloronaphthalen-1-yl)-8-fluoro-2-(2-(1-methyl-1H-imidazol-2-yl)ethoxy)pyrido[4,3-d]pyrimidin-4-yl)-3,8-diazabicyclo[3.2.1]octan-6-ol]", "IC50": 10500}
{"compound": "Fc1c(-c2cccc(C(F)(F)F)c2C(F)(F)F)ncc2c(N3C[C@H]4CC[C@@H](C3)N4)nc(OCC34CCCN3CCC4)nc12", "note": "[Example 197, 4-((1R,5S)-3,8-diazabicyclo[3.2.1]octan-3-yl)-7-(2,3-bis(trifluoromethyl)phenyl)-8-fluoro-2-((tetrahydro-1H-pyrrolizin-7a(5H)-yl)methoxy)pyrido[4,3-d]pyrimidine]", "IC50": "> 16700"}
{"compound": "CN(C)C1CN(c2nc(N3C[C@H]4CC[C@@H](C3)N4)c3cnc(-c4cccc5cccc(Cl)c45)c(F)c3n2)C1", "note": "[Example 122, 1-(4-((1R,5S)-3,8-diazabicyclo[3.2.1]octan-3-yl)-7-(8-chloronaphthalen-1-yl)-8-fluoropyrido[4,3-d]pyrimidin-2-yl)-N,N-dimethylazetidin-3-amine]", "IC50": "> 16700"}
{"compound": "CC(C)N1CCC[C@H]1COc1nc(N2C[C@H]3CC[C@@H](C2)N3)c2cnc(-c3cccc4cccc(Cl)c34)c(F)c2n1", "note": "[Example 29, 4-((R,5S)-3,8-diazabicyclo[3.2.1]octan-3-yl)-7-(8-chloronaphthalen-1-yl)-8-fluoro-2-(((S)-1-isopropylpyrrolidin-2-yl)methoxy)pyrido[4,3-d]pyrimidine]", "IC50": 13600}
{"compound": "CCc1c(Cl)cccc1-c1ncc2c(N3C[C@H]4CC[C@@H](C3)N4)nc(OCC34CCCN3CCC4)nc2c1F", "note": "[Example 312, 4-((1R,5S)-3,8-diazabicyclo[3.2.1]octan-3-yl)-7-(3-chloro-2-ethylphenyl)-8-fluoro-2-((hexahydro-1H-pyrrolizin-7a-yl)methoxy)pyrido[4,3-d]pyrimidine]", "IC50": 1880}
{"compound": "Oc1cc(-c2ncc3c(N4CC5CCC(C4)N5)nc(OCC45CCCN4C(CF)CC5)nc3c2F)c2ccccc2c1", "note": "(mixture of isomers) [Example 384, 4-(4-((1R,5S)-3,8-diazabicyclo[3.2.1]octan-3-yl)-8-fluoro-2-((3-(fluoromethyl)tetrahydro-1H-pyrrolizin-7a(5H)-yl)methoxy)pyrido[4,3-d]pyrimidin-7-yl)naphthalen-2-ol (mixture of isomers)]", "IC50": 398}
{"compound": "Cc1ccc2[nH]ncc2c1-c1ncc2c(N3CC4CCC(C3)N4)nc(OCC34CCCN3C[C@H](F)C4)nc2c1F", "note": "(mixture of isomers) [Example 331, 4-((1R,5S)-3,8-diazabicyclo[3.2.1]octan-3-yl)-8-fluoro-2-((2-fluorotetrahydro-1H-pyrrolizin-7a(5H)-yl)methoxy)-7-(5-methyl-1H-indazol-4-yl)pyrido[4,3-d]pyrimidine]", "IC50": 10800}
{"compound": "C[C@H]1C[C@@H]1c1c(Cl)cc(O)cc1-c1ncc2c(N3C[C@H]4CC[C@@H](C3)N4)nc(OC[C@@]34CCCN3C[C@H](F)C4)nc2c1F", "note": "[Example 451, 3-(4-((1R,5S)-3,8-diazabicyclo[3.2.1]octan-3-yl)-8-fluoro-2-(((2R,7aS)-2-fluorotetrahydro-1H-pyrrolizin-7a(5H)-yl)methoxy)pyrido[4,3-d]pyrimidin-7-yl)-5-chloro-4-((1S,2S)-2-methylcyclopropyl)phenol]", "IC50": 78.3}
{"compound": "Oc1cc(-c2ncc3c(N4C[C@H]5CC[C@@H](C4)N5)nc(OC[C@@H]4CCCN4)nc3c2F)c2ccccc2c1", "note": "[Example 50, 4-(4-((1R,5S)-3,8-diazabicyclo[3.2.1]octan-3-yl)-8-fluoro-2-(((S)-pyrrolidin-2-yl)methoxy)pyrido[4,3-d]pyrimidin-7-yl)naphthalen-2-ol]", "IC50": 15400}
{"compound": "CC(C)n1ccnc1CCOc1nc(N2C[C@H]3CC[C@@H](C2)N3)c2cnc(-c3cc(O)cc4ccccc34)c(F)c2n1", "note": "[Example 91, 4-(4-((1R,5S)-3,8-diazabicyclo[3.2.1]octan-3-yl)-8-fluoro-2-(2-(1-isopropyl-1H-imidazol-2-yl)ethoxy)pyrido[4,3-d]pyrimidin-7-yl)naphthalen-2-ol]", "IC50": 5510}
{"compound": "Cc1cccc(-c2ncc3c(N4C[C@H]5CC[C@@H](C4)N5)nc(OCC45CCCN4CCC5)nc3c2F)c1C", "note": "[Example 275, 4-((1R,5S)-3,8-diazabicyclo[3.2.1]octan-3-yl)-7-(2,3-dimethylphenyl)-8-fluoro-2-((hexahydro-1H-pyrrolizin-7a-yl)methoxy)pyrido[4,3-d]pyrimidine]", "IC50": 7060}
